# In ChEMBL document CHEMBL4024731, “Cytotoxic steroidal saponins from Trillium kamtschaticum” (Bioorg Med Chem Lett, 2017):
# Tested on: HCT-116
# Assay: Cytotoxicity against human HCT116 cells after 48 hrs by MTT assay
# Type: functional, cell-based
# Conditions: HCT-116, 48 h
row,SMILES,IC50 [µM]
1,Cc1c(CCC(C)CO)ccc2c1[C@@]1(C)CC[C@H]3[C@@H](CC=C4C[C@@H](O[C@@H]5O[C@H](CO)[C@@H](O)[C@H](O)[C@H]5O[C@@H]5O[C@@H](C)[C@H](O)[C@@H](O)[C@H]5O)CC[C@@]43C)[C@@H]1C2 (stereo not given in full),> 40
2,C[C@@H]1O[C@@H](O[C@H]2[C@H](O[C@H]3CC[C@@]4(C)C(=CC[C@@H]5[C@@H]4CC[C@]4(C)C(=O)OC[C@@H]54)C3)O[C@H](CO)[C@@H](O)[C@@H]2O)[C@H](O)[C@H](O)[C@H]1O,> 40
3,CC(=O)O[C@H]1[C@@H](C)CO[C@@]2(O[C@H]3C(=O)C4=C(CC[C@H]5[C@H]4CC=C4C[C@@H](O)C[C@@H](O[C@@H]6OC[C@H](O)[C@H](O[C@@H]7OC[C@@H](O)[C@H](O)[C@H]7O)[C@H]6O[C@@H]6O[C@@H](C)[C@H](O)[C@@H](O[C@@H]7OC[C@](O)(CO)[C@H]7O)[C@H]6O)[C@@]45C)[C@H]3[C@@H]2CO)[C@H]1O,5.84
4,CC(=O)OC[C@H]1[C@@H]2C3=C(C(=O)[C@@H]2O[C@@]12OC[C@H](C)[C@@H](O)[C@@H]2O)[C@@H]1CC=C2C[C@@H](O)C[C@@H](O[C@@H]4OC[C@H](O)[C@H](O)[C@H]4O[C@@H]4O[C@@H](C)[C@H](OC(C)=O)[C@@H](O[C@@H]5OC[C@](O)(CO)[C@H]5O)[C@H]4O)[C@]2(C)[C@H]1CC3,4.92
5,COC(=O)/C(C)=C1\C(=O)C[C@H]2[C@@H]3CC=C4C[C@@H](O[C@@H]5O[C@H](CO)[C@@H](O)[C@H](O)[C@H]5O[C@@H]5O[C@@H](C)[C@H](O)[C@@H](O)[C@H]5O)CC[C@]4(C)[C@H]3CC[C@]12C,> 40
6,CC[C@@]1(O)C(=O)OCc2c1cc1n(c2=O)Cc2cc3ccccc3nc2-1 [CAMPTOTHECIN],0.0115
7,"C/C(C(=O)CC[C@@H](C)CO[C@@H]1O[C@H](CO)[C@@H](O)[C@H](O)[C@H]1O)=C1/C(=O)C[C@H]2C3CC=C4C[C@@H](O[C@@H]5O[C@H](CO)[C@@H](O)[C@H](O)[C@H]5O[C@@H]5O[C@@H](C)[C@H](O)[C@@H](O)[C@H]5O)CC[C@]4(C)[C@H]3CC[C@]12C (single isomer, unassigned)",12.7
8,CC1=C2[C@](O)(C[C@H]3[C@@H]4CC=C5C[C@@H](O[C@@H]6O[C@H](CO)[C@@H](O[C@@H]7O[C@@H](C)[C@H](O)[C@@H](O)[C@H]7O)[C@H](O)[C@H]6O[C@@H]6O[C@@H](C)[C@H](O)[C@@H](O)[C@H]6O)CC[C@]5(C)[C@H]4CC[C@]23C)[C@@H](C[C@@H](C)CO[C@@H]2O[C@H](CO)[C@@H](O)[C@H](O)[C@H]2O)C1=O,> 40
9,C/C(C(=O)CC[C@@H](C)CO[C@@H]1O[C@H](CO)[C@@H](O)[C@H](O)[C@H]1O)=C1/C(=O)C[C@H]2[C@@H]3CC=C4C[C@@H](O[C@@H]5O[C@H](CO)[C@@H](O[C@@H]6O[C@@H](C)[C@H](O)[C@@H](O)[C@H]6O)[C@H](O)[C@H]5O)CC[C@]4(C)[C@H]3CC[C@]12C,17.3
10,CC(=O)OC[C@H]1[C@@H]2C3=C(C(=O)[C@@H]2O[C@@]12OC[C@H](C)[C@@H](O)[C@@H]2O)[C@@H]1CC=C2C[C@@H](O)C[C@@H](O[C@@H]4OC[C@H](O)[C@H](O[C@@H]5OC[C@@H](O)[C@H](O)[C@H]5O)[C@H]4O[C@@H]4O[C@@H](C)[C@H](O)[C@@H](O[C@@H]5OC[C@](O)(CO)[C@H]5O)[C@H]4O)[C@]2(C)[C@H]1CC3,22.5
